Assay results taken from patent US10149809B2, “Skin aging inhibitor and concentrate of resveratrol 3-O-α-glucoside” (priority 2014, dated 2018).

Tests used:
[1] = Solubility in solvent containing 1,2-pentanediol; assay type: physicochemical
Method: (§1) Approximately 40 mg each of resveratrol 3-O-α-glucoside, resveratrol (Tokyo Chemical Industry Co., Ltd.), and resveratrol 3-O-β-glucoside (Tokyo Chemical Industry Co., Ltd.) was weighed, approximately 70 mg of a solvent (whose composition is shown in Table 18) containing ethanol (Wako Pure Chemical Industries, Ltd.) was added thereto, and the mixture was soaked in a water bath at 25° C. under light-tight conditions, and incubated for 15 hours with occasional stirring. After 15 hours, each of the samples was filtered through a 0.45 μm centrifugal filter, and then the concentration of each of the components in the filtrate was analyzed using HPLC under the same conditions as those described in Production Example 1 above. The dissolved concentration (w/v %) at 25° C. was thus determined.
The solubility of resveratrol 3-O-α-glucoside was evaluated under the same conditions as those described in Example 18 above, except that a solvent (whose composition is shown in Table 23) containing 1,2-pentanediol (Kankosha Co., Ltd.) was used.

[2] = Solubility in solvent containing 1,2-hexanediol; assay type: physicochemical
Method: as §1
The solubility of resveratrol 3-O-α-glucoside was evaluated under the same conditions as those described in Example 18 above, except that a solvent (whose composition is shown in Table 24) containing 1,2-hexanediol (Kankosha Co., Ltd.) was used.

[3] = system: matrix metalloproteinase 1 (MMP1) gene; experiment: MMP1 gene expression in normal human dermal fibroblasts; assay type: cell-based; conditions: 0.001 wt %, 24 hours, control = 100%
Method: Using normal human dermal fibroblasts, the effect of resveratrol 3-O-α-glucoside on matrix metalloproteinase 1 (MMP1) and 9 (MMP9) genes in the dermis was investigated.
Normal human dermal fibroblasts were seeded into 12-well culture plates at 9×10^4 cells per well. As the medium, 10 vol % FBS (Fetal Bovine Serum)-containing DMEM medium (basal medium) was used, and the cells were preincubated in 5% CO2 at 37° C. for 24 hours. The medium was removed and then replaced with a basal medium supplemented with 0.001 wt % of resveratrol 3-O-α-glucoside, and the cells were cultured in 5% CO2 at 37° C. After 24 hours, total RNA was extracted from the cells, and the levels of expression of the MMP1 and MMP9 genes were quantified by real time PCR. As a control group, cells were cultured without resveratrol 3-O-α-glucoside, and total RNA collected from these cells was used.
Taking as 100% the level of expression of each of the MMP1 and MMP9 genes for the control group, a relative ratio of the expression level of each of the MMP1 and MMP9 genes for the resveratrol 3-O-α-glucoside-supplemented group (MMP1 and MMP9 gene expression ratios, %) was determined. In the measurement of the expression level of each of the MMP1 and MMP9 genes, GAPDH (glyceraldehyde 3-phosphate dehydrogenase) was used for internal standard correction.

[4] = Solubility in solvent containing 1,3-butylene glycol; assay type: physicochemical
Method: as §1
The solubility of resveratrol 3-O-α-glucoside was evaluated under the same conditions as those described in Example 18 above, except that a solvent (whose composition is shown in Table 21) containing 1,3-butylene glycol (Wako Pure Chemical Industries, Ltd.) was used.

[5] = Absorption when orally ingested: converted resveratrol concentration in plasma; assay type: in vivo, human
Method: Blood concentrations of resveratrol metabolites when resveratrol 3-O-α-glucoside and resveratrol 3-O-β-glucoside were orally ingested were examined, and the absorption properties of resveratrol 3-O-α-glucoside and resveratrol 3-O-β-glucoside were compared.
To 100 mL of water, 86 mg of resveratrol 3-O-α-glucoside or resveratrol 3-O-β-glucoside (Tokyo Chemical Industry Co., Ltd.) was added, and the mixture was stirred for 1 minute. The resulting solution was orally ingested by a subject at a time. Blood was collected prior to, 30 minutes after, and 1, 2, 3, and 4 hours after the ingestion, and the plasma was separated by centrifugation. The test was performed three times for each of the samples. In order to quantify the amount of resveratrol derivatives in the collected plasma samples, 10 μL of β-glucronidase Type H-2 from Sigma-Aldrich Co. LLC. (glucuronidase activity: 115003 units/mL, sulfatase activity: 556 units/mL; a 5-fold diluted solution in a 100 mM acetate buffer solution (pH 5.5)) was added to 10 μL of the collected plasma, and enzyme treatment was performed at 37° C. for about 18 hours. After the reaction, 80 μL of 60% acetonitrile was added, and subsequently 100 μL of water was further added thereto, and the mixture was stirred. The filtrate obtained by filtering through a membrane (0.45 μm) was subjected to HPLC analysis. A converted resveratrol concentration was determined by converting the concentration of resveratrol derivatives in each of the plasma samples into the concentration of resveratrol, and maximum blood concentrations and areas under the curve (AUCs) 0 to 4 hours after the ingestion were determined.

[6] = Solubility in solvent containing ethanol; assay type: physicochemical
Method: as §1

[7] = Solubility in solvent containing dipropylene glycol; assay type: physicochemical
Method: as §1
The solubility of resveratrol 3-O-α-glucoside was evaluated under the same conditions as those described in Example 18 above, except that a solvent (whose composition is shown in Table 22) containing dipropylene glycol (Asahi Glass Co., Ltd.) was used.

[8] = Non-Patent Literature 3; cited from earlier work

SMILES: OC[C@H]1O[C@H](Oc2cc(O)cc(C=Cc3ccc(O)cc3)c2)[C@H](O)[C@@H](O)[C@@H]1O [Resveratrol 3-O-α-Glucoside, resveratrol 3-O-α-glucoside]
- dissolved concentration [1]: exceeded 20 w/v %
- dissolved concentration [2]: exceeded 25 w/v %
- MMP1 Gene Expression Ratio (%) [3]: 85%
- dissolved concentration [4]: exceeded 20 w/v %
- AUC relative to resveratrol 3-O-β-glucoside ([5]; human, in vivo, po, 86 mg): 2.8 times
- dissolved concentration [6]: exceeded 30 w/v %
- Dissolved Concentration (w/v %) at 25° C. ([6]; 15 h): 0.3 w/v %
- dissolved concentration [7]: exceeded 30 w/v %

SMILES: OC[C@H]1O[C@@H](Oc2cc(O)cc(/C=C/c3ccc(O)cc3)c2)[C@H](O)[C@@H](O)[C@@H]1O [Resveratrol 3-O-β-Glucoside, resveratrol 3-O-β-glucoside]
- Dissolved Concentration (w/v %) at 25° C. ([1]; 1,2-Pentanediol:Water 0:100 (weight ratio)): 0.04 w/v %
- Dissolved Concentration (w/v %) at 25° C. ([1]; 1,2-Pentanediol:Water 10:90 (weight ratio)): 0.2 w/v %
- Dissolved Concentration (w/v %) at 25° C. ([1]; 1,2-Pentanediol:Water 25:75 (weight ratio)): 2.3 w/v %
- Dissolved Concentration (w/v %) at 25° C. ([1]; 1,2-Pentanediol:Water 50:50 (weight ratio)): 7.5 w/v %
- Dissolved Concentration (w/v %) at 25° C. ([1]; 1,2-Pentanediol:Water 75:25 (weight ratio)): 11.3 w/v %
- Dissolved Concentration (w/v %) at 25° C. ([1]; 1,2-Pentanediol:Water 90:10 (weight ratio)): 9.4 w/v %
- Dissolved Concentration (w/v %) at 25° C. ([1]; 1,2-Pentanediol:Water 100:0 (weight ratio)): 4.6 w/v %
- Dissolved Concentration (w/v %) at 25° C. ([2]; 1,2-Hexanediol:Water 0:100 (weight ratio)): 0.04 w/v %
- Dissolved Concentration (w/v %) at 25° C. ([2]; 1,2-Hexanediol:Water 5:95 (weight ratio)): 0.1 w/v %
- Dissolved Concentration (w/v %) at 25° C. ([2]; 1,2-Hexanediol:Water 10:90 (weight ratio)): 0.5 w/v %
- Dissolved Concentration (w/v %) at 25° C. ([2]; 1,2-Hexanediol:Water 25:75 (weight ratio)): 2.6 w/v %
- Dissolved Concentration (w/v %) at 25° C. ([2]; 1,2-Hexanediol:Water 50:50 (weight ratio)): 6.5 w/v %
- Dissolved Concentration (w/v %) at 25° C. ([2]; 1,2-Hexanediol:Water 75:25 (weight ratio)): 7.9 w/v %
- Dissolved Concentration (w/v %) at 25° C. ([2]; 1,2-Hexanediol:Water 90:10 (weight ratio)): 10.7 w/v %
- Dissolved Concentration (w/v %) at 25° C. ([2]; 1,2-Hexanediol:Water 100:0 (weight ratio)): 3.2 w/v %
- Dissolved Concentration (w/v %) at 25° C. ([4]; 1,3-Butylene Glycol:Water 0:100 (weight ratio)): 0.04 w/v %
- Dissolved Concentration (w/v %) at 25° C. ([4]; 1,3-Butylene Glycol:Water 5:95 (weight ratio)): 0.04 w/v %
- Dissolved Concentration (w/v %) at 25° C. ([4]; 1,3-Butylene Glycol:Water 10:90 (weight ratio)): 0.07 w/v %
- Dissolved Concentration (w/v %) at 25° C. ([4]; 1,3-Butylene Glycol:Water 15:85 (weight ratio)): 0.1 w/v %
- Dissolved Concentration (w/v %) at 25° C. ([4]; 1,3-Butylene Glycol:Water 20:80 (weight ratio)): 0.2 w/v %
- Dissolved Concentration (w/v %) at 25° C. ([4]; 1,3-Butylene Glycol:Water 25:75 (weight ratio)): 0.3 w/v %
- Dissolved Concentration (w/v %) at 25° C. ([4]; 1,3-Butylene Glycol:Water 50:50 (weight ratio)): 2.8 w/v %
- Dissolved Concentration (w/v %) at 25° C. ([4]; 1,3-Butylene Glycol:Water 75:25 (weight ratio)): 7.5 w/v %
- Dissolved Concentration (w/v %) at 25° C. ([4]; 1,3-Butylene Glycol:Water 90:10 (weight ratio)): 9.7 w/v %
- Dissolved Concentration (w/v %) at 25° C. ([4]; 1,3-Butylene Glycol:Water 100:0 (weight ratio)): 7.2 w/v %
- Maximum Plasma Concentration ([5]; 86 mg in 100 mL water orally, one subject, three tests, converted resveratrol concentration after glucuronidase/sulfatase treatment): 282 ng/mL
- Area under the Curve ((mg/L) · Hr) ([5]; 86 mg orally, 0 to 4 hours after ingestion, converted resveratrol concentration): 0.9 (mg/L) · Hr
- Dissolved Concentration (w/v %) at 25° C. ([6]; Ethanol:Water 0:100 (weight ratio), 15 hours): 0.04 w/v %
- Dissolved Concentration (w/v %) at 25° C. ([6]; Ethanol:Water 5:95 (weight ratio), 15 hours): 0.05 w/v %
- Dissolved Concentration (w/v %) at 25° C. ([6]; Ethanol:Water 10:90 (weight ratio), 15 hours): 0.06 w/v %
- Dissolved Concentration (w/v %) at 25° C. ([6]; Ethanol:Water 15:85 (weight ratio), 15 hours): 0.1 w/v %
- Dissolved Concentration (w/v %) at 25° C. ([6]; Ethanol:Water 20:80 (weight ratio), 15 hours): 0.2 w/v %
- Dissolved Concentration (w/v %) at 25° C. ([6]; Ethanol:Water 25:75 (weight ratio), 15 hours): 0.4 w/v %
- Dissolved Concentration (w/v %) at 25° C. ([6]; Ethanol:Water 30:70 (weight ratio), 15 hours): 0.7 w/v %
- Dissolved Concentration (w/v %) at 25° C. ([6]; Ethanol:Water 40:60 (weight ratio), 15 hours): 2.6 w/v %
- Dissolved Concentration (w/v %) at 25° C. ([6]; Ethanol:Water 50:50 (weight ratio), 15 hours): 5.3 w/v %
- Dissolved Concentration (w/v %) at 25° C. ([6]; Ethanol:Water 75:25 (weight ratio), 15 hours): 13.8 w/v %
- Dissolved Concentration (w/v %) at 25° C. ([6]; Ethanol:Water 90:10 (weight ratio), 15 hours): 7.3 w/v %
- Dissolved Concentration (w/v %) at 25° C. ([6]; Ethanol:Water 100:0 (weight ratio), 15 hours): 2.4 w/v %
- Dissolved Concentration (w/v %) at 25° C. ([7]; Dipropylene Glycol:Water 0:100 (weight ratio)): 0.04 w/v %
- Dissolved Concentration (w/v %) at 25° C. ([7]; Dipropylene Glycol:Water 5:95 (weight ratio)): 0.06 w/v %
- Dissolved Concentration (w/v %) at 25° C. ([7]; Dipropylene Glycol:Water 10:90 (weight ratio)): 0.1 w/v %
- Dissolved Concentration (w/v %) at 25° C. ([7]; Dipropylene Glycol:Water 15:85 (weight ratio)): 0.3 w/v %
- Dissolved Concentration (w/v %) at 25° C. ([7]; Dipropylene Glycol:Water 20:80 (weight ratio)): 0.5 w/v %
- Dissolved Concentration (w/v %) at 25° C. ([7]; Dipropylene Glycol:Water 25:75 (weight ratio)): 0.9 w/v %
- Dissolved Concentration (w/v %) at 25° C. ([7]; Dipropylene Glycol:Water 50:50 (weight ratio)): 11.5 w/v %
- Dissolved Concentration (w/v %) at 25° C. ([7]; Dipropylene Glycol:Water 75:25 (weight ratio)): 26.1 w/v %
- Dissolved Concentration (w/v %) at 25° C. ([7]; Dipropylene Glycol:Water 90:10 (weight ratio)): 23.9 w/v %
- Dissolved Concentration (w/v %) at 25° C. ([7]; Dipropylene Glycol:Water 100:0 (weight ratio)): 15.0 w/v %
- water solubility [8]: approximately 400 μg/mL
- water solubility relative to that of resveratrol [8]: approximately 10 fold
